This is an account of results in article PMC9603170, “Protein Kinase C Inhibitors Reduce SARS-CoV-2 Replication in Cultured Cells” (Microbiology Spectrum, 2022).

Where two headings read alike, the source gives them in different places. Where only a bound is given, the exact number is not on record here.

The subject of one series is A549-ACE2 cells. The series is described as follows: CCK8 cell viability assay in A549-ACE2 cells. In kind it is cell-based, human. The procedure:
(§1) Cell viabilities were analyzed using cell counting kit 8 (CCK8) (catalog no. HY-K0301; MCE) according to the manufacturer’s instructions. Ten microliters of the CCK8 reagent was added to each well of a 96-well plate. After incubation at 37°C for 1 h, optical density (OD) values were measured at 450 nm using a BioTek instrument. The CC50 was calculated by nonlinear regression analysis.
On the technique in general: Formazan colour is commonly taken as a measure of viable cells.

In series [1] the test system is wild-type SARS-CoV-2. In kind it is cell-based. The settings on record: A549-ACE2; pretreated 1 h; MOI 0.8; 24 h p.i.; DMSO 20%.
The test system of series [2] is SARS-CoV-2 replicon. Briefly: microbe, parasite or virus in culture. In kind it is cell-based. The settings on record: for IC50: BHK-21 cells, read-out: IC50, SARS-CoV-2 replicon luciferase activity. (A replicon is a self-replicating genome or part of one, used to study replication in cells.)
Series [3] concerns SARS-CoV-2 replicon. Briefly: microbe, parasite or virus in culture. In kind it is cell-based. The conditions noted are these: human Huh7 cells, read-out: IC50, SARS-CoV-2 replicon luciferase activity.
The subject of another series is BHK-21 cells. The series is described as follows: CCK8 cell viability assay in BHK-21 cells. The series is classed as cell-based, hamster. The conditions noted are these: 24 h. The procedure: as §1
A further series relates to Huh7 cells. Briefly: CCK8 cell viability assay in Huh7 cells. The series is classed as cell-based, human. The settings on record: human Huh7 cells; 24 h. The procedure: as §1
Series [4] deals with Zika virus (ZIKV) replicon. The series is described as follows: ZIKV replicon luciferase assay in BHK-21 cells. In kind it is cell-based. The conditions noted are these: both 6 and 24 h posttransfection. As for the experimental part: FIG 4 PKC inhibitors play an antiviral role during the early stage of SARS-CoV-2 replication. (A to E) Effect of PKC inhibitors on protein translation. BHK-21 cells were pretreated with DMSO or the indicated inhibitors for 1 h, followed by transfection with SARS-CoV-2 replicon RNA, GFP- or Renilla luciferase-expressing plasmids, or ZIKV replicon RNA. Luciferase assays or Western blot assays were performed at the indicated hours after transfection. MW, molecular weight; RLU, relative luciferase units. (F) Effect of PKC inhibitors on 3CL^pro activity. The protein activities were determined using a 2019 nCoV M^pro/3CL^pro inhibitor screening kit. SARS-CoV-2 3CL^pro, the substrate, and the inhibitors were incubated at 37°C for 5 min, and […] were measured at 490 nm using a multimode plate reader. […] P values were calculated by ANOVA with Dunnett’s multiple-comparison test or unpaired, two-tailed Student’s t tests (*, P < 0.05; **, P < 0.01; ***, P < 0.001; ****, P < 0.0001; NS, not significant).
To test whether these inhibitors specifically block viral protein translation, we compared the expression levels of ectopically expressed green fluorescent protein (GFP) or Renilla luciferase in the absence and presence of the PKC inhibitor. At 24 h posttransfection, the GFP protein levels or relative Renilla luciferase activities were determined by a Western blot or luciferase assay. […]

The test system of series [5] is wild-type SARS-CoV-2. Briefly: Wild-type SARS-CoV-2 infection of A549-ACE2 cells, qRT-PCR of supernatant viral RNA. In kind it is cell-based. The settings on record: 10 μM inhibitor, MOI 0.8, 24 h p.i.
Series [6] relates to GFP- or Renilla luciferase-expressing plasmids. The series is classed as cell-based, hamster. The settings on record: BHK-21, 24 h posttransfection; for GFP levels vs DMSO-treated cells: Western blot. For orientation: In western blotting, separated proteins are transferred to a membrane and probed.
Another series deals with SARS-CoV-2 pseudovirus. The series is classed as cell-based. The conditions noted are these: pretreated 1 h, % of DMSO.
The target in another series is T1, SARS-CoV-2 3CL^pro (Severe acute respiratory syndrome coronavirus 2, UniProt P0DTD1).
T1 construct: One microliter of SARS-CoV-2 3CL^pro reagent; purchased Beyotime P0312S
The series is classed as biochemical. The settings on record: 37°C, 5 min incubation.

Series [7] is described as follows: CCK8 cell viability assay in A549-ACE2 cells. In kind it is cell-based, human. The conditions noted are these: human. The procedure:
as §1

Series [8] can be described thus: CCK8 cell viability assay in BHK-21 cells. In kind it is cell-based, hamster. As for the experimental part: as §1
Series [9] in a line: CCK8 cell viability assay in Huh7 cells. In kind it is cell-based, human. As for the experimental part: as §1
Where [10] appears, read: BHK-21 cells, read-out: CC50 (CCK8 cell viability).
Where [11] appears, read: BHK-21, pretreated 1 h, […], vs DMSO.
Setting [12] is: Severe acute respiratory syndrome coronavirus 2, pretreated 1 h, […].
Setting [13] is: Severe acute respiratory syndrome coronavirus 2, Huh-7, 24 h.
Where [14] appears, read: human Huh7 cells, 24 h, read-out: CC50 (CCK8 cell viability).

For the molecule `COc1ccc2c(c1)c(C1=C(c3c[nH]c4ccccc34)C(=O)NC1=O)cn2CCCN(C)C` [Go 6983], the 50% cytotoxic concentration (CC50) – broadly, the concentration at which the toxic effect on the cells reaches its halfway point – with A549-ACE2 cells turned out to be 50 µM; with BHK-21 cells (setting [10]) it was 16.9 µM; with Huh7 cells it was 24.9 µM. For the same molecule, the “percentage of N-positive cells” value in the series on wild-type SARS-CoV-2 [1] worked out at 12%. In addition, the “relative luciferase activity lower than that in DMSO-treated cells” value in the series with SARS-CoV-2 replicon [2] is on record as “about 99%”. In the series on SARS-CoV-2 replicon [2], the “replicon luciferase activities at all tested time points vs DMSO” value (“replicon luciferase activities … vs DMSO” for short) is on record as “constantly lower”. In addition, the IC50 (in general, the midpoint of a concentration-inhibition curve) in the series with SARS-CoV-2 replicon [2] (pretreated 1 h, […]) came out at 0.087 µM; in the series on SARS-CoV-2 replicon [3], 0.361 µM. For the same molecule, in series [4], the “replication levels of the ZIKV replicon” value is “barely affected”. For the same molecule, in the series with wild-type SARS-CoV-2 [5], the “viral RNA level in supernatant, fold lower than DMSO” value is “about 12 fold”. Also, the “Renilla luciferase activities vs DMSO-treated cells” value in [6] was “comparable”. Besides, in series [6], the “GFP levels vs DMSO-treated cells” value is given as “comparable”. For the same molecule, the “luciferase activity of pseudovirus relative to DMSO-treated cells (entry)” value with SARS-CoV-2 pseudovirus is “about 35%”.
For `CN(C)CCCn1cc(C2=C(c3c[nH]c4ccccc34)C(=O)NC2=O)c2ccccc21` [bisindolylmaleimide I], the half-maximal cytotoxic concentration (CC50) in the series on A549-ACE2 cells was found to be 50.9 µM; in the series on BHK-21 cells (setting [10]), 15.9 µM; in the series with Huh7 cells it was 30 µM. The “percentage of N-positive cells” value with wild-type SARS-CoV-2 [1] was 3%. The “relative luciferase activity lower than that in DMSO-treated cells” value with SARS-CoV-2 replicon [2] is reported as approximately 96%. The “replicon luciferase activities … vs DMSO” value in the series on SARS-CoV-2 replicon [2] is on record as “constantly lower”. Moreover, the IC50 worked out at 0.386 µM in the series with SARS-CoV-2 replicon [2] (pretreated 1 h, […]) and 0.413 µM with SARS-CoV-2 replicon [3]. In addition, the “replication levels of the ZIKV replicon” value in series [4] is on record as “barely affected”. Also, in the series with wild-type SARS-CoV-2 [5], the “viral RNA level in supernatant, fold lower than DMSO” value is approximately 16 fold. The “Renilla luciferase activities vs DMSO-treated cells” value in series [6] is recorded as “comparable”. Also, the “GFP levels vs DMSO-treated cells” value in series [6] is reported as “comparable”. Moreover, the “luciferase activity of pseudovirus relative to DMSO-treated cells (entry)” value in the series with SARS-CoV-2 pseudovirus is on record as approximately 24%.
Regarding `O=c1c2ccccc2[se]n1-c1ccccc1` [ebselen], the “SARS-CoV-2 3CLpro protease activity” value at SARS-CoV-2 3CL^pro is given as “dramatically reduced”. For the same molecule, the “replicon luciferase activity at 6 h (protein translation / polyprotein cleavage)” value in the series on SARS-CoV-2 replicon [2] (setting [11]) is reported as “reduced”.
On to `Cn1cc(C2=C(c3cn(C4CCN(Cc5ccccn5)CC4)c4ccccc34)C(=O)NC2=O)c2ccccc21` [enzastaurin], for which the cytotoxic concentration (CC50) in [7] was found to be 80 µM; in the series on BHK-21 cells (hamster), 160 µM. Moreover, the “percentage of N-positive cells” value in the series with wild-type SARS-CoV-2 [1] worked out at 12%. The “relative luciferase activity lower than that in DMSO-treated cells” value with SARS-CoV-2 replicon [2] is approximately 92%. Moreover, the “replicon luciferase activities … vs DMSO” value with SARS-CoV-2 replicon [2] is reported as “constantly lower”. The IC50 was 0.929 µM in the series with SARS-CoV-2 replicon [2] (setting [12]) and 0.93 µM with SARS-CoV-2 replicon [3] (setting [13]). The CC50 at 24 h in series [8] (hamster, CC50 (CCK8 cell viability)) was more than 160 µM; in series [9] (human), 86.4 µM. Besides, the “viral RNA level in supernatant, fold lower than DMSO” value in the series with wild-type SARS-CoV-2 [5] is approximately 3 fold. Further, in the series on SARS-CoV-2 pseudovirus, the “luciferase activity of pseudovirus relative to DMSO-treated cells (entry)” value was approximately 42%.
In the case of `CCC(CC)COC(=O)[C@H](C)N[P@](=O)(OC[C@H]1O[C@@](C#N)(c2ccc3c(N)ncnn23)[C@H](O)[C@@H]1O)Oc1ccccc1` [remdesivir], in the series with SARS-CoV-2 replicon [2] (setting [11]), the “replicon luciferase activity at 6 h (protein translation / polyprotein cleavage)” value is recorded as “did not alter” and the “replicon luciferase activity at 24 h (RNA synthesis)” value is reported as “significantly reduced”.
For `CC(=O)c1c(O)c(C)c(O)c(Cc2c(O)c3c(c(C(=O)/C=C/c4ccccc4)c2O)OC(C)(C)C=C3)c1O` [rottlerin], the IC50 in the series with SARS-CoV-2 replicon [2] (setting [12]) stood at 0.479 µM; with SARS-CoV-2 replicon [3] (setting [13]), 0.33 µM. The CC50 at 24 h in series [8] (hamster; BHK-21 cells; 24 h; read-out: CC50 (CCK8 cell viability)) came out at 1.43 µM; in series [9] (setting [14]) it was 4.46 µM.
For the molecule `CN1CCN(c2nc(C3=C(c4c[nH]c5ccccc45)C(=O)NC3=O)c3ccccc3n2)CC1` [sotrastaurin], the “relative luciferase activity lower than that in DMSO-treated cells” value in the series on SARS-CoV-2 replicon [2] is listed as approximately 89%. Besides, the “replicon luciferase activities … vs DMSO” value with SARS-CoV-2 replicon [2] is given as “constantly lower”. The IC50 in the series on SARS-CoV-2 replicon [2] (setting [12]) was determined as 2.67 µM; in the series with SARS-CoV-2 replicon [3] (setting [13]) it was 1.9 µM. Further, the CC50 at 24 h in series [8] (hamster, BHK-21 cells; 24 h; read-out: CC50 (CCK8 cell viability)) was determined as 82.2 µM; in [9] (setting [14]) it was 50.8 µM. The “luciferase activity of pseudovirus relative to DMSO-treated cells (entry)” value in the series on SARS-CoV-2 pseudovirus was approximately 55%.
